In patent US8076485B2, “Methylphenidate derivatives and uses of them” (priority 2005, dated 2011):

Test system: peripheral blood lymphocytes (PBL)
Assay: PHA-induced cell clumping of PBL
Assay type: cell-based, human
Conditions: Example 1, PBL of donor GR283; compound 5, 15, 50 μg/ml; 5 μg/ml PHA; 72 hours
Method: Whole blood was drawn from GR283, a human volunteer with known allergies, into a glass vacutainer tube containing no anticoagulant. This blood was allowed to clot, and the serum was removed by centrifugation and then heat inactivated by placing it in a water bath at 56° C. for 30 minutes. Whole blood from GR283 was also drawn into a glass vacutainer tube containing heparin and used for peripheral blood lymphocytes (PBL) isolation as follows. Whole blood was layered over room temperature Histopaque 1077 solution and centrifuged at 2000 rpm for 15 minutes at room temperature. Cells at the plasma-Histopaque interface were then removed and washed with culture medium (IMDM medium with 10% heat-inactivated GR283 serum plus 1% penicillin/streptomycin) at 37° C.
The compound of formula II (see above) and methylphenidate (both obtained from Dr. Jeffrey D. Winkler, University of Pennsylvania, Philadelphia, Pa.) in culture medium were added to wells of a 96-well plate to give final concentrations of 5 μg/ml, 15 μg/ml and 50 μg/ml of the compound of formula II and of methylphenidate. […] Then, GR283's PBL in culture medium were added to the wells to give a final concentration of 150,000 cells per well, and the plates were incubated at 37° C., 5% CO2 for 24 hours. […]

COC(=O)C(c1ccc(-c2ccccc2)cc1)C1CCCCN1 (stereo not shown) [Cpd II]
amount of cell clumping induced by PHA: reduced the amount of cell clumping induced by 5 μg/ml PHA in a dose-dependent manner
